Measurements taken from patent US20250032506A1, “GLUCOCORTICOID RECEPTOR BLOCKADE WITH MIFEPRISTONE TO SENSITIZE PANCREATIC CANCER TO IMMUNOTHERAPY” (BOARD OF REGENTS, THE UNIVERSITY OF TEXAS SYSTEM, priority 2021, published 2025).

Key:
[1] = tested on: BXPC-3 cells; test: qPCR and immunoblotting of PD-L1 and MHC-I in BXPC-3 cells; format: cell-based, human; settings: MIFE 20 μM (qPCR) or indicated doses (immunoblot), 72 h
Excerpt: The male PDAC cell lines HY24409 and HY24160 and the female PDAC cell line HY19636 were established from KPC mice (p48-Cre; Kras^LSL-G12D/+; Trp53^loxP/+) that were backcrossed to a C57BL/6 background (purity: ˜ 98%). (See Bardeesy, N., et al. supra). The human PDAC cell lines SU86.86 ([…]), SW1990 ([…]), BXPC-3 ([…]), Miapaca-2 ([…]), Capan-1 ([…]), ASPC-1 ([…]), Hs766T ([…]), Colo357/FG ([…]), L3.6PL ([…]), Panc28 ([…]), Capan-2 ([…]), CF-Pac-1 ([…]), Panc3 (sex unknown), Panc1 ([…]), Panc48 (sex unknown), and HPAC ([…]) were from Mien-Chie Hung's lab stock. The HY24409, HY24160, HY19636, SU86.86, SW1990, and Hs766T cell lines were cultured in RPMI 1640 (Corning, 10-041-CV) supplemented with 10% fetal bovine serum (FBS) (Gibco, 10438-034) and 1% penicillin/streptomycin (Sigma, P4333). The BXPC-3, Miapaca-2, Capan-1, ASPC-1, Colo357/FG, L3.6PL, Panc28, Capan-2, CF-Pac-1, Panc3, Panc1, Panc48, and HPAC cell lines were cultured in DMEM/F-12 (Corning, 10-092-CV) supplemented with 10% FBS and 1% penicillin/streptomycin. Cells were grown in a humidified incubator with 5% CO2 at 37° C., and low-passage stocks were maintained in a centralized lab cell bank. Short tandem repeat profiling and mycoplasma tests were done by the Cytogenetics and Cell Authentication Core at MD Anderson Cancer Center. […]

[2] = tested on: orthotopic HY24409 tumors; test: Flow cytometric analysis and multiplex immunofluorescent staining of tumors or spleens from mice treated with mifepristone and dual ICB; format: in vivo, mouse
Description: Cancer Discov 10, 1374-1387 (2020). […] CyTOF data were analyzed by FlowJo and Cytobank.
Immunity 54, 1561-1577 e1567 (2021).

[3] = relative to the control group, either with or without co-treatment with dual ICB

Compound: CC#C[C@]1(O)CC[C@H]2[C@@H]3CCC4=CC(=O)CCC4=C3[C@@H](c3ccc(N(C)C)cc3)C[C@@]21C [mifepristone]
- MHC-I at both mRNA and protein levels [1]: significantly upregulated
- PD-L1 at both mRNA and protein levels [1]: downregulated
- tumor infiltration by CD8+ T cells and granzyme B+ CTLs ([2]; flow cytometric analysis and multiplex immunofluorescent staining, HY24409 tumors): increase
- cell-surface MHC-I (H-2K^b) and B2M in tumor cells [2, 3]: increase
- cell-surface PD-L1 in tumor cells [2, 3]: decrease
